In US6887867B2, “5H-2,3-benzodiazepine antagonists of excitatory amino acid receptors” (Transgenomic, Inc., priority 2000, dated 2005):
Like-named read-outs stand apart in the source and are kept apart here.

Experiments:
AMPA receptor = experiment: Inhibition of Ca2+ influx into cortical cells stimulated with AMPA; assay type: cell-based; conditions: cortical cells stimulated with 50 μM AMPA; fluorescence readout
Procedure: Three of the antagonists disclosed herein were tested, in vitro, for inhibition of Ca^2+ influx into cortical cells stimulated with AMPA. They are 1-(4-Aminophenyl)-3,5-dihydro-4-methyl-3-acetyl-7-methoxy-5H-2,3-benzodiazepine (8) (SYM 2267), 1-(4-Aminophenyl)-3,5-dihydro-4-methyl-3-acetyl-8-methoxy-5H-2,3-benzodiazepine (21) (SYM 2268), and 1-(4-Aminophenyl)-3,5-dihydro-4-methyl-3-acetyl-7-amino-8-methoxy-5H-2,3-benzodiazepine (27) (SYM 2269), respectively. The in vitro test measures inhibition of Ca^2+ influx into cortical cells stimulated with 50 µM AMPA by the test compounds. The rationale underlying this assay is that stimulation of the cortical cells with AMPA activates AMPA receptors causing Ca^2+ influx with an increase in intracellular Ca^2+ which is then detected by measuring an increase in fluorescence. The Ca^2+ increase comes mostly from extracellular (influx of Ca^2+ through the channel into the cell), but could also come from intracellular sources (release of Ca^2+ from storage). The inhibition of the AMPA receptor function is detected by a decrease in the level of intracellular Ca^2+ and a decrease in fluorescence.

MES seizures = experiment: Maximal electro shock (MES) seizure model; assay type: in vivo; conditions: rats
Procedure: The extent of protection by a test compound in a seizure model is tested as described by Rogawski et al. (Epilepsy Research, 15:179-184, 1993). Male NIH Swiss mice (25-30 g) are injected ip with the test drug. The mice are subjected to a 0.2 sec, 60 Hz, 50 mA electrical stimulus delivered with corneal electrodes wetted with 0.9% saline at 15-30 min post dosing. Animals failing to show tonic hind limb extension are scored as protected. Compounds may be selected which are active in this model.
SYM 2267 was evaluated for in vivo anticonvulsant activity in the maximal electro shock (MES) model in rats.

Rotorod test = assay type: in vivo; conditions: rats, PO
focal ischemia = conditions: rat MCAO, cited from earlier work
global ischemia = conditions: rat common carotid arteries model; cited from earlier work

SMILES: COc1cc2c(cc1N)CC(C)N(C(C)=O)N=C2c1ccc(N)cc1 (stereo not drawn) [SYM 2269, 1-(4-Aminophenyl)-3,5-dihydro-4-methyl-3-acetyl-7-amino-8-methoxy-5H-2,3-benzodiazepine]
- IC50 (AMPA receptor): 7.3 µM

SMILES: COc1ccc2c(c1)CC(C)N(C(C)=O)N=C2c1ccc(N)cc1 (stereo not drawn) [SYM 2267, 1-(4-Aminophenyl)-3,5-dihydro-4-methyl-3-acetyl-7-methoxy-5H-2,3-benzodiazepine]
- ED50 (MES seizures; Rattus norvegicus, MES model, read-out: MES effective dosage (ED50)): 8.4 mg/kg
- Protection from MES seizures (MES seizures; orally (PO), 30 mg/kg): fully protected
- Sedative or toxic side effects in the rotorod test (Rotorod test): No sedative or toxic side effects were observed
- IC50 (AMPA receptor): 26.1 µM

SMILES: COc1ccc2c(c1)C(c1ccc(N)cc1)=NN(C(C)=O)C(C)C2 (stereo not drawn) [SYM 2268, 1-(4-Aminophenyl)-3,5-dihydro-4-methyl-3-acetyl-8-methoxy-5H-2,3-benzodiazepine]
- IC50 (AMPA receptor): 16.6 µM

SMILES: CC1=NN=C(c2ccc(N)cc2)c2cc3c(cc2C1)OCO3 [GYKI 52466]
- Reduction of cortical infarct volume (focal ischemia; dosing delayed for one hour): 48%
- Reduction of cortical infarct volume (focal ischemia; given continuously for 2 hours just after occlusion): 68%
- Efficacy in global ischemia compared with NBQX (global ischemia): as effective as the glutamate site competitive antagonist NBQX
